Measurements published in patent US5187157A, “Peptide boronic acid inhibitors of trypsin-like proteases” (Du Pont Merck Pharmaceutical Company, priority 1988, dated 1993).
Residues, ends and D or L forms follow the SMILES beside them. *: point of attachment. X1 = CC1(C)C2CC3OB(C(CCCNC(=N)N)N*)OC3(C)C1C2; X2 = CC1(C)C2CC3OB(C(CCCSC(=N)N)N*)OC3(C)C1C2; X3 = CC1(C)C2CC3OB(C(CCCN)N*)OC3(C)C1C2; Boc = CC(C)(C)OC(=O)*

How the values were obtained:
Human plasma kallikrein = biological target: T1, Human plasma kallikrein (Homo sapiens, UniProt P03952); test: Inhibition of Human Plasma Kallikrein; format: biochemical; details: for Percent Activity: activity remaining 10 to 20 min after initiation
T1 construct: purchased Protogen AG (Switzerland)
Method: (§1) In the Examples which follow, the hydrolytic activity of each enzyme is measured in both the presence and absence of inhibitor and the percent enzyme activity determined. […] A steady state is reached fairly rapidly and nears completion within 5 min. Activity is evaluated between 10-20 min after the components are mixed to insure that reaction components are at equilibrium. The lowest concentration of inhibitor tested is determined by the estimated concentration of enzyme. […] The maintenance of pseudo-first-order reaction conditions and the sensitivity of the respective assays sets the lowest limit level of inhibitor tested at 10 nM for kallikrein inhibitors and 5 nM for thrombin inhibitors.
Human plasma kallikrein was obtained from Protogen AG (Switzerland). The specific activity as described by the supplier is 15 units per mg. A unit is defined as the quantity of enzyme required to hydrolyze 1 μmole of substrate, H-(D)Pro-Phe-Arg-p-nitroanilide (Kabi S2302), per min at a substrate concentration of 0.50 mM at 25° in 50 mM potassium phosphate buffer, pH 8.0.

Human thrombin = biological target: T2, Human thrombin (Homo sapiens, UniProt P00734); test: Inhibition of Thrombin (Esterase Activity); format: biochemical; details: for Percent Activity: activity remaining 10 to 20 min after initiation
T2 construct: purchased R.Q.P. Laboratories, South Bend, IN Lot HT102
Method: as §1
A stock solution of thrombin was prepared in 0.010M PIPES Buffer, pH 6.0, containing 0.75 M sodium chloride. […] The initial concentration of substrate was 0.10 mM and the concentration of thrombin was 1.0 nM (based on weight).

T1 sequence (P03952 391-638 limits assumed): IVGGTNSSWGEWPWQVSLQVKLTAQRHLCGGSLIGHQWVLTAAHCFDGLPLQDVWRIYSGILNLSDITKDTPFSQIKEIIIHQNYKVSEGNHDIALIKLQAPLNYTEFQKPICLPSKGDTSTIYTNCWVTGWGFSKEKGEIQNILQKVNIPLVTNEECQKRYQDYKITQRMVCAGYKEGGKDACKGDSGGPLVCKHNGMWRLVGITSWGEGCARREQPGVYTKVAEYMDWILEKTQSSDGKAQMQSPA
T1 sequence (P03952 20-390 partner limits assumed): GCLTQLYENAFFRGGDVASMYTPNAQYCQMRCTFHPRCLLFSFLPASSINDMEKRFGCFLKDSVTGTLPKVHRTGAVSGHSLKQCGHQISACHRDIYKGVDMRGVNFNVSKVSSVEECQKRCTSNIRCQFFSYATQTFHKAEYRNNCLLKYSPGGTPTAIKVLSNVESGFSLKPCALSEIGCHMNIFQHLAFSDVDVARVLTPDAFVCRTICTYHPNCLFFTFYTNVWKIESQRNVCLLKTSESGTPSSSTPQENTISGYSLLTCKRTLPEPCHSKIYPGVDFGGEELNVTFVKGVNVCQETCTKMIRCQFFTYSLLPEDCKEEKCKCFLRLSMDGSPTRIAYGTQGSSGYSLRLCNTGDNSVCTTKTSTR

Compound: CC(=O)NC(Cc1ccccc1)C(=O)N1CCCC1C(=O)NC(CCCNC(=N)N)B1OC2CC3CC(C3(C)C)C2(C)O1.Cl (stereo not drawn) [Ac--(D)Phe--Pro--boroArg--C10 H16.HCl, Ac-(D)Phe-Pro-boroArg-C10 H16.HCl]
- Percent Activity (Human plasma kallikrein; inhibitor 10 nM): 56%
- Ki (suggested by inhibitor concentration and percent inhibition) (Human thrombin; estimate from percent inhibition): in the picomolar range
- inhibits thrombin (Human thrombin; inhibitor 5 nM): 99%
- Percent Activity (Human thrombin; inhibitor 5 nM): 1%

Compound: Br.CC(=O)NC(C)C(=O)NC(CCCCNC(=O)OC(C)(C)C)C(=O)NC(CCCSC(=N)N)B1OC2CC3CC(C3(C)C)C2(C)O1 (centres unmarked) [Ac--Ala--Lys(Boc)--boroIrg--C10 H16.HBr, Ac-Ala-Lys(Boc)-boroIrg-C10 H16.HBr]
- Percent Activity (Human plasma kallikrein; inhibitor 50 nM): 1.4%
- Percent Activity (Human thrombin; inhibitor 100 nM): 55%

Compound: CC(=O)NC(C)C(=O)NC(CCCCN)C(=O)NC(CCCNC(=N)N)B1OC2CC3CC(C3(C)C)C2(C)O1.Cl.Cl (stereo not drawn) [Ac--Ala--Lys--boroArg--C10 H16.2HCl, Ac-Ala-Lys-boroArg-C10 H16.2HCl]
- Percent Activity (Human plasma kallikrein; inhibitor 50 nM): 39%
- Percent Activity (Human thrombin; inhibitor 1000 nM): 45%

Compound: Br.Br.CC(=O)NC(C)C(=O)NC(CCCCN)C(=O)NC(CCCSC(=N)N)B1OC2CC3CC(C3(C)C)C2(C)O1 (stereo not drawn) [Ac--Ala--Lys--boroIrg--C10 H16.2HBr, Ac-Ala-Lys-boroIrg-C10 H16.2HBr]
- Percent Activity (Human thrombin; inhibitor 1000 nM): 68%

Compound: CC(=O)NC(Cc1ccccc1)C(=O)NC(CCCCN)B1OC(C)(C)C(C)(C)O1.Cl (centres unmarked) [Ac--Phe--boroLys--C6 H12.HCl, Ac-Phe-boroLys-C6 H12.benzene sulfonic acid]
- Percent Activity (Human thrombin; inhibitor 10000 nM): 97%

Compound: CC(C)(C)OC(=O)NC(Cc1ccccc1)C(=O)NC(Cc1ccccc1)C(=O)NC(CCCN)B1OC2CC3CC(C3(C)C)C2(C)O1.O=S(=O)(O)c1ccccc1 (stereo not drawn) [Boc--(D)Phe--Phe--boroOrn--C10 H16.BSA, Boc-(D)Phe-Phe-boroOrn-C10 H16.benzene sulfonic acid]
- Percent Activity (Human plasma kallikrein; inhibitor 10000 nM): 39%

Compound: CC(C)(C)OC(=O)NC(Cc1ccccc1)C(=O)N1CCCC1C(=O)NC(CCCN)B1OC2CC3CC(C3(C)C)C2(C)O1.O=S(=O)(O)c1ccccc1 (stereo not drawn) [Boc--(D)Phe--Pro--boroOrn--C10 H16.BSA, Boc-(D)Phe-Pro-NH-CH[(CH2)3 NH2 ]BO2 -C10 H16.benzene sulfonic acid]
- Percent Activity (Human plasma kallikrein; inhibitor 10000 nM): 100%
- Percent Activity (Human thrombin; inhibitor 100 nM): 18%

Compound: CC(C)CC(NC(=O)C(NC(=O)OC(C)(C)C)C(C)C)C(=O)NC(CCCCN)B1OC(C)(C)C(C)(C)O1.Cl (stereo not drawn) [Boc--(D)Val--Leu--boroLys--C6 H12.HCl, Boc-(D)Val-Leu-boroLys-C6 H12.benzene sulfonic acid]
- Percent Activity (Human thrombin; inhibitor 1000 nM): 21%

Compound: CC(NC(=O)OC(C)(C)C)C(=O)NC(Cc1ccccc1)C(=O)NC(CCCCN)B1OC(C)(C)C(C)(C)O1.Cl (stereo not drawn) [Boc--Ala--Phe--(D,L)boroLys--C6 H12.HCl, Boc-Ala-Phe-(D,L)boroLys-C6 H12.HCl]
- Percent Activity (Human plasma kallikrein; inhibitor 1000 nM): 17%
- Percent Activity (Human thrombin; inhibitor 10000 nM): 46%

Compound: Br.CC(NC(=O)OC(C)(C)C)C(=O)NC(Cc1ccccc1)C(=O)NC(CCCCSC(=N)N)B1OC(C)(C)C(C)(C)O1 (stereo not drawn) [Boc-Ala-Phe-(D,L)boroHomoIrg-C6 H12.HBr]
- Percent Activity (Human plasma kallikrein; inhibitor 100 nM): 38%
- Percent Activity (Human thrombin; inhibitor 10000 nM): 32%

Compound: CC(C)CC(NC(=O)CNC(=O)C(CC(C)C)NC(=O)OC(C)(C)C)C(=O)NC(C)C(=O)NC(CCCNC(=N)N)B1OC2CC3CC(C3(C)C)C2(C)O1.O=S(=O)(O)c1ccccc1 (stereo not drawn) [Boc-Leu-Gly-Leu-Ala-boroArg-C10 H16.benzene sulfonic acid] (Boc-LGLA-X1; configuration not given here)
- Percent Activity (Human plasma kallikrein; inhibitor 10 nM): 30%
- Percent Activity (Human thrombin; inhibitor 10 nM): 38%

Compound: Br.CC(C)CC(NC(=O)CNC(=O)C(CC(C)C)NC(=O)OC(C)(C)C)C(=O)NC(C)C(=O)NC(CCCSC(=N)N)B1OC2CC3CC(C3(C)C)C2(C)O1 (stereo not drawn) [Boc-Leu-Gly-Leu-Ala-boroIrg-C10 H16.HBr] (Boc-LGLA-X2; configuration not given here)
- Percent Activity (Human thrombin; inhibitor 10 nM): 66%

Compound: CC(C)CC(NC(=O)CNC(=O)C(CC(C)C)NC(=O)OC(C)(C)C)C(=O)NC(C)C(=O)NC(CCCN)B1OC2CC3CC(C3(C)C)C2(C)O1.O=S(=O)(O)c1ccccc1 (stereo not drawn) [Boc-Leu-Gly-Leu-Ala-boroOrn-C10 H16] (Boc-LGLA-X3; configuration not given here)
- Percent Activity (Human thrombin; inhibitor 1000 nM): 24%

Compound: CCCCOC(=O)CC[C@H](NC(=O)c1ccccc1)C(=O)NCC(=O)NC(CCCNC(=N)N)B1OC2CC3CC(C3(C)C)C2(C)O1.O=S(=O)(O)c1ccccc1 (some centres unmarked) [Bz--Glu(OBu)--Gly--boroArg--C10 H16.BSA, Bz-Glu(OBu)-Gly-boroArg-C10 H16.benzene sulfonic acid]
- Percent Activity (Human plasma kallikrein; inhibitor 50 nM): 11%
- Percent Activity (Human thrombin; inhibitor 10 nM): 52%

Compound: CC1(C)C2CC3OB(C(CCCNC(=N)N)NC(=O)CNC(=O)C(CCC(=O)O)NC(=O)c4ccccc4)OC3(C)C1C2.O=S(=O)(O)c1ccccc1 (stereo not drawn) [Bz--Glu--Gly--boroArg--C10 H16.BSA, Bz-Glu-Gly-boroArg-C10 H16.benzene sulfonic acid]
- Percent Activity (Human plasma kallikrein; inhibitor 50 nM): 39%
- Percent Activity (Human thrombin; inhibitor 100 nM): 46%

Compound: Br.CC1(C)C2CC3OB(C(CCCSC(=N)N)NC(=O)CNC(=O)C(CCC(=O)O)NC(=O)c4ccccc4)OC3(C)C1C2 (stereo not drawn) [Bz--Glu--Gly--boroIrg-- C10 H16.HBr, Bz-Glu-Gly-boroIrg-C10 H16.HBr]
- Percent Activity (Human thrombin; inhibitor 1000 nM): 39%

Compound: CC1(C)C2CC3OB(C(CCCNC(=N)N)NC(=O)C(Cc4ccccc4)NC(=O)C4CCCN4C(=O)c4ccccc4)OC3(C)C1C2.O=S(=O)(O)c1ccccc1 (stereo not drawn) [Bz--Pro--Phe--boroArg--C10 H16.BSA, Bz-Pro-Phe-boroArg-C10 H16.benzene sulfonic acid]
- Percent Activity (Human plasma kallikrein; inhibitor 10 nM): 15%
- Percent Activity (Human thrombin; inhibitor 1000 nM): 24%

Compound: Cl.NC(N)=NCCC[C@H](NC(=O)[C@H](Cc1ccccc1)NC(=O)[C@@H]1CCCN1C(=O)c1ccccc1)B(O)O [Bz--Pro--Phe--boroArg--OH.HCl, Bz-Pro-Phe-boroArg-OH.HCl]
- Percent Activity (Human plasma kallikrein; inhibitor 10 nM): 16%
- Percent Activity (Human thrombin; inhibitor 1000 nM): 18%

Compound: Br.CC1(C)C2CC3OB(C(CCCSC(=N)N)NC(=O)C(Cc4ccccc4)NC(=O)C4CCCN4C(=O)c4ccccc4)OC3(C)C1C2 (stereo not drawn) [Bz--Pro--Phe--boroIrg--C10 H16.HBr, Bz-Pro-Phe-boroIrg-C10 H16.HBr]
- Percent Activity (Human thrombin; inhibitor 1000 nM): 21%

Compound: Br.Br.CC1(C)C2CC3OB(C(CCCSC(=N)N)NC(=O)C(Cc4ccccc4)NC(=O)C(N)Cc4ccccc4)OC3(C)C1C2 (stereo not drawn) [H--(D)Phe--Phe-- boroIrg--C10 H16.2HBr, H-(D)Phe-Phe-boroIrg-C10 H16.2HBr]
- Percent Activity (Human thrombin; inhibitor 10 nM): 49%

Compound: CC1(C)C2CC3OB(C(CCCNC(=N)N)NC(=O)C(Cc4ccccc4)NC(=O)C(N)Cc4ccccc4)OC3(C)C1C2.Cl.Cl (stereo not drawn) [H--(D)Phe--Phe--boroArg--C10 H16.2HCl, H-(D)Phe-Phe-boroArg-C10 H16.2HCl]
- inhibits kallikrein (Human plasma kallikrein; inhibitor 10 nM): greater than 95%
- Percent Activity (Human plasma kallikrein; inhibitor 10 nM): 2.6%
- Percent Activity (Human thrombin; inhibitor 10 nM): 10%

Compound: Br.CC1(C)C2CC3OB(C(CCCSC(=N)N)NC(=O)C4CCCN4C(=O)C(N)Cc4ccccc4)OC3(C)C1C2.Cl (stereo not drawn) [H--(D)Phe--Pro--boroIrg--C10 H16.HBr.HCl, H-(D)Phe-Pro-boroIrg-C10 H16.HBr,HCl]
- Percent Activity (Human thrombin; inhibitor 5 nM): 4%

Compound: Br.Br.CC(N)C(=O)NC(Cc1ccccc1)C(=O)NC(CCCSC(=N)N)B1OC(C)(C)C(C)(C)O1 (stereo not drawn) [H--Ala--Phe--(D,L)boroIrg--C6 H12.2HBr, H-Ala-Phe-(D,L)boroIrg-C6 H12.2HBr]
- Percent Activity (Human thrombin; inhibitor 10000 nM): 23%

Compound: Br.Br.CC(N)C(=O)NC(Cc1ccccc1)C(=O)NC(CCCCSC(=N)N)B1OC(C)(C)C(C)(C)O1 (stereo not drawn) [H-Ala-Phe-(D,L)boroHomoIrg-C6 H12.2HBr]
- Percent Activity (Human thrombin; inhibitor 10000 nM): 47%

Compound: CC(C)CC(N)C(=O)NCC(=O)NC(CC(C)C)C(=O)NC(C)C(=O)NC(CCCNC(=N)N)B1OC2CC3CC(C3(C)C)C2(C)O1.Cl.O=S(=O)(O)c1ccccc1 (stereo not drawn) [H-Leu-Gly-Leu-Ala-boroArg-C10 H16.HCl.benzene sulfonic acid] (H-LGLA-X1; configuration not given here)
- Percent Activity (Human thrombin; inhibitor 10 nM): 25%

Compound: Br.Br.CC(C)CC(N)C(=O)NCC(=O)NC(CC(C)C)C(=O)NC(C)C(=O)NC(CCCSC(=N)N)B1OC2CC3CC(C3(C)C)C2(C)O1 (stereo not drawn) [H-Leu-Gly-Leu-Ala-boroIrg-C10 H16.2HBr] (H-LGLA-X2; configuration not given here)
- Percent Activity (Human thrombin; inhibitor 10 nM): 37%

Compound: Br.CC1(C)C2CC3OB(C(CCCSC(=N)N)NC(=O)CNC(=O)CNC(=O)C(Cc4ccccc4)NC(=O)OCc4ccccc4)OC3(C)C1C2 (stereo not drawn) [Z--Phe--Gly--Gly--boroIrg--C10 H16.HBr, Z-PheGly-Gly-boroIrg-C10 H16.HBr]
- Percent Activity (Human thrombin; inhibitor 100 nM): 46%

Compound: Ac-Ala-Lys(Boc)-boroArg-C10 H16.benzene sulfonic acid [Ac--Ala--Lys(Boc)--boroArg--C10 H16.BSA]
- Percent Activity (Human plasma kallikrein; inhibitor 10 nM): 34%
- Percent Activity (Human thrombin; inhibitor 100 nM): 18%

Compound: Boc-Ala-Phe-(D,L)boroIrg-C6 H12.HBr [Boc--Ala--Phe--(D,L)boroIrg--C6 H12.HBr]
- Percent Activity (Human plasma kallikrein; inhibitor 10 nM): 15%
- Percent Activity (Human thrombin; inhibitor 1000 nM): 28%

Compound: Bz-Glu(OBu)-Gly-boroIrg-C10 H16.HBr [Bz--Glu(OBu--Gly--boroIrg--C10 H16.HBr]
- Percent Activity (Human thrombin; inhibitor 10 nM): 59%

Compound: Bz-Pro-Phe-boroArg-F.hydrogen chloride [Bz--Pro--Phe--boroArg--F]
- Percent Activity (Human plasma kallikrein; inhibitor 10 nM): 18%
- Percent Activity (Human thrombin; inhibitor 1000 nM): 18%

Compound: H-A]a-Phe-(D,L)boroLys-C6 H12.TFA.benzene sulfonic acid [H--Ala--Phe--D,L)boroLys--C6 H12.2HCl]
- Percent Activity (Human thrombin; inhibitor 10000 nM): 89%
